Drawing on patent publication US20180265867A1, “NUCLEIC ACID MOLECULES WITH ENHANCED ACTIVITY” (priority 2015, published 2018), this text covers Ctnnb1 expression, SOX9 levels and cytotoxicity for two compounds.

d = 2'-deoxy (DNA); r = 2'-OH (RNA)

Data set [1] deals with Ctnnb1 (β-Catenin). In words: Ctnnb1 expression in MC3T3-E1 cells by quantitative RT-PCR. It is filed as cell-based, mouse. On the procedure:
(§1) MC3T3-E1 cells were cultured in α-MEM (Sigma-Aldrich, Haverhill, UK) medium containing 10% FBS, 1% L-Glutamine, and 1% antibiotics (PeSt) at 37° C. with 5% CO2. One day prior to the miRNA treatment, 35,000 cells were plated per each well of a 24-well plate. On the experiment day, cells were replaced with 2% heat inactivated-FBS containing α-MEM medium with 1% L-Glutamine, and 1% antibiotics (PeSt). miR-34a-CP (final concentration: 50 nM) was given to the each well. Mirvana scrambled miRNA mimic was used as a negative control.
After 24 hours of transfection, and incubation, RNA extraction was performed by using miRCURY RNA Isolation Kit—Cell and Plant (#300100) and protocol from Exiqon, Vedbæk, Denmark. RNA samples were treated with DNase for 30 minutes at 37 degrees, thereafter inactivated with a DNase inactivation solution (TUTRBO DNase AM2238 thermofisher). Thereafter, RNA concentrations were measured using NanoDrop ND-1000 from NanoDrop Technologies, Wilmington, Del.
The cDNA was made from the total RNA using High Capacity cDNA reverse transcription kit (Applied Biosystems, USA). Reactions were performed on a 96-well Bio-Rad Thermal Cycler PCR System at 37° C. for 60 minutes, and at 95° C. for 5 min respectively. Real-time PCR reactions were performed as follows: 10 μl of 2×TaqMan® Universal PCR Master Mix, no AmpErase® UNG (Applied Biosystems, USA), 9 μl 1:5 diluted cDNA, and 1 μl of TaqMan gene specific assay mix. Final volume of the reaction mix was 20 uL. Internal control gene beta-actin (ACTB) (Applied Biosystems, USA) was selected as control for normalization of TaqMan data. The qRT-PCR reaction comprised a non-template control of cDNA in order to rule out any non-specific reading. Taqman probes for Ctnnb1, Sox9, Actb, were obtained from Applied Biosystems. The qRT-PCR amplification was carried out using the Bio-Rad qRT-PCR Thermocycler.
In order to achieve the transfection reagent free delivery of therapeutically potential microRNAs, we tested miR-34a and compared with miR-34a-CP. Since microRNAs unlike siRNAs have multiple targets in the cell, and there is a necessity to reduce the off-target and undesirable effects if any, we have also designed siRNA model siR-34a-CP as stated above. We have used mouse preosteoblast cell line MC3T3-E1 obtained from calvarial bone for the in-vitro functional validation of cell-penetrating molecules. On the day before transfection experiment, 35000 MC3T3-E1 cells were cultured per each well of the 24-well culture plate in alpha-Minimum Essential Medium with 10% heat inactivated FBS, 1% L-Glutamine, 1% antibiotics (Pe/St). […] 5% CO2. Thereafter, RNA extraction, cDNA preparation, and quantitative real-time PCR was performed by using TaqMan procedure.

Data set [2] has as its system SOX9. In words: SOX9 expression in MC3T3-E1 cells by real-time PCR. Format: cell-based, mouse. To be noted: MC3T3-E1 cells (FIG. 13). On the procedure: as §1
After 24 hours of transfection, and incubation, RNA extraction was performed by using miRCURY RNA Isolation Kit—Cell and Plant (#300100) and protocol from Exiqon, Vedbæk, Denmark. […] Thereafter, RNA concentrations were measured using NanoDrop ND-1000 from NanoDrop Technologies, Wilmington, Del.
The cDNA was made from the total RNA using High Capacity cDNA reverse transcription kit (Applied Biosystems, USA). […] The qRT-PCR reaction comprised a non-template control of cDNA in order to rule out any non-specific reading. […]
Since overexpression of Ctnnb1 is indicative of osteogenic differentiation of cells, we determined the expression of transcription factor that could be activated. For this purpose, we measured the levels of […] marker SOX9 that is implicated in endochondral ossification.

Data set [3] concerns A2780 human ovarian cancer cells. In words: Cell viability (ApoTox-Glo Triplex Assay) in A2780 cells. It is filed as cell-based. To be noted: 10 nM to 1000 nM, 48 h (FIG. 15).
Protocol: Cell viability study of 5-FU and siRNA derivatives bearing 5FU molecules were performed using, ApoTox-Glo™ Triplex Assay kit following manufacturer's protocol. Briefly, A2780 human ovarian cancer cells were seeded in 384 well BD Facon black plates (1000 cells in 50 μL/well) using automated Biomek FX pipetting workstation and incubated at 37° C. for 24 h for cell attachment. Stock solution of 5FU, siRNA-5FU2 and siRNA 5FU5 was prepared in cell culture medium (DMEM) respectively. siRNA-5FU2 and siRNA 5FU5 corresponds to Stat3 siRNA bearing 2 or 5 molecules of 5FU at the 3′end of the sense strand. After 24 h, different volume of stock solution was added to each well using non-contact acoustic dispenser (Echo 555), to obtain a gradient concentration ranging from 10 nM to 1000 nM and incubated for additional 48 h at 37° C. After 48 h, 20 μl of medium was treated with 5 μl of cell viability assay reagent, containing both GF-AFC substrate and bis-AAF-R110 substrate and incubated for 30 min at 37° C. Fluorescence values were recorded at two wavelength sets: 400Ex/505Em (Viability) and 485Ex/520Em (Cytotoxicity) using Envision Multilabel Plate Reader and the cell viability were obtained as a percentage of the untreated control (100% cell viability). […] All the cell experiments were measured in triplicate.

As for “miR-34a-CP: Cell penetrating miR-34a, sense SEQ ID NO: 22 with dA5, antisense SEQ ID NO: 23 (sense CAAUCAGCAAGUAUACUGCCCUAAAAA; antisense UGGCAGUGUCUUAGCUGGUUGU; sense: sugars from the 5' end r22 d5, backbone not given here; antisense: RNA, backbone not given here)”, the Ctnnb1 expression entry in data set [1] (50 nM, 24 h, alone without transfection reagent (FIG. 11)) is reported as “up regulation of Ctnnb1”; in data set [1] (without transfection reagent MaTra (FIG. 12)), “up regulation of Ctnnb1”. The SOX9 levels result in data set [2] was “upregulated”.

Take `O=c1[nH]cc(F)c(=O)[nH]1` [5FU, 5-Fluorouracil]: the cytotoxicity result in data set [3] is on record as “dose dependent cytotoxicity”.
